Data reported in patent publication US20260250320A1, “LIPIDATED PEPTIDE INHIBITORS OF INTERLEUKIN-23 RECEPTOR” (Janssen Pharmaceutica NV, priority 2023, published 2026).
*1 amine or outer side, *2 acyl side, *3 side chain or, on linkers, in order; H or OH if unused. Where a SMILES comes first, the peptide text is derived from it. Bridges are numbered along the chain shown (N, C = ends). Side-chain parts run from the residue outwards. [ ]: non-standard residue; d: D form. The star is where a group is joined. X14 = CC(=O)N(C)CCCC[C@H](CC(=O)C1(N*)CCOCC1)C(=O)N[C@@H](CC(N)=O)C(=O)N[C@@H](Cc1cccnc1)C(=O)N(C)CC(=O)N(C)C; Me3N+(CH2)2O(CH2)2O(CH2)2CO = C[N+](C)(C)CCOCCOCCC(=O)*; Trp(7-Me) = Cc1cccc2c(C[C@H](N)C(=O)O)c[nH]c12; C22 diacid = O=C(O)CCCCCCCCCCCCCCCCCCCCC(=O)*; C20 diacid = O=C(O)CCCCCCCCCCCCCCCCCCC(=O)*; C18 diacid = O=C(O)CCCCCCCCCCCCCCCCC(=O)*; CH2CH2OCH2CH2NMe3+ = C[N+](C)(C)CCOCC*; γGlu = O=C(O)[C@H](CCC(=O)[*:2])N[*:1]; 2Nal = N[C@@H](Cc1ccc2ccccc2c1)C(=O)O; AEF = NCCOc1ccc(C[C@H](N)C(=O)O)cc1; X2 = C[N+](C)(C)C[C@@H](CC(=O)O)N*; 3Pal = N[C@@H](Cc1cccnc1)C(=O)O; Lys(Me) = CNCCCC[C@H](N)C(=O)O; PEG4 = NCCOCCOCCOCCOCCC(=O)O; Pen = CC(C)(S)[C@H](N)C(=O)O; Suc = O=C(CCC(=O)[*:2])[*:1]; Thp = NC1(C(=O)O)CCOCC1; X1 = C[N+](C)(C)CCCCC*; AEEA = NCCOCCOCC(=O)O; ClAc = O=C(CCl)*; Sar = CNCC(=O)O

Key:
[1] = test system: IL-23-stimulated phosphorylated STAT3 in peripheral blood mononuclear cells (PBMCs); test: PBMC pSTAT3 Assay; type: cell-based; settings: PBMCs from healthy donors; 30 min preincubation with peptide; IL-23 5 ng/mL for 30 min; phospho-STAT3 by MSD
Method in brief: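 Healthy-donor PBMCs expanded 4 days on anti-CD3 with 100 ng/mL IL-1β, starved ~4 h in RPMI-0.1% BSA, preincubated 30 min with peptide, then stimulated 30 min at 37 °C with 5 ng/mL IL-23. Lysate pSTAT3 measured by MSD phospho-STAT panel; IC50 derived.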

[2] = biological target: T1, IL-23R (Homo sapiens, UniProt Q5VWK5); test: IL23R Reporter Assay; type: cell-based; settings: HEK293 cells containing IL-23R, IL-12Rβ1 and STAT-inducible firefly luciferase reporter; 10 ng/mL IL-23 (EC90); 5 h
T1 construct: HEK293 cells containing IL-23R, IL-12Rβ1 and a firefly luciferase reporter gene driven by a STAT-inducible promoter (Promega); host or cells: HEK293
T1 sequence (Q5VWK5 24-629): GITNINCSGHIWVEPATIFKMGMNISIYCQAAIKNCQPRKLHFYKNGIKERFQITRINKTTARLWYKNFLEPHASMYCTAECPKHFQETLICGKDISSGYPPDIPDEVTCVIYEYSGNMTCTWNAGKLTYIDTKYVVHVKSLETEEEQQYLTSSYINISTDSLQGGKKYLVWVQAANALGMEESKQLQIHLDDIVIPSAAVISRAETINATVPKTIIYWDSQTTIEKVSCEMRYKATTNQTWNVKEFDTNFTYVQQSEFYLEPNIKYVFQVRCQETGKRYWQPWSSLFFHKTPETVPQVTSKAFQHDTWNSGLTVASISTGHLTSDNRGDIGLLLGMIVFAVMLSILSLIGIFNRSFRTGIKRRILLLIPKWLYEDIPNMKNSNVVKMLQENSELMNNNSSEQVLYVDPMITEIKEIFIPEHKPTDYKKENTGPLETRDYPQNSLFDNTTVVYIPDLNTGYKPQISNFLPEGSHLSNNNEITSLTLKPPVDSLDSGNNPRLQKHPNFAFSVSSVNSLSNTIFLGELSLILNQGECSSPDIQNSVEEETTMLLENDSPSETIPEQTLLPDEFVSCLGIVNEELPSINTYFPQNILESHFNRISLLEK
Method in brief: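 HEK293 cells carrying IL-23R, IL-12Rβ1 and a STAT-driven firefly luciferase reporter (4000 cells/well) received compound, then 10 ng/mL IL-23 solution (EC90), and were incubated for 5 h at 37° C. BioGlo luminescence was normalised to IL-23 alone (0%) and 30 μM control inhibitor (100%). IC50 came from a 4-parameter Hill fit.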

| SMILES | IC50 [1] [nM] | IC50 [2] [nM] |
| --- | --- | --- |
| CC(=O)N(C)CCCC[C@@H]1NC(=O)[C@H](Cc2c[nH]c3c(C)cccc23)NC(=O)[C@H]([C@@H](C)O)NC(=O)[C@H](CC(=O)N(C)C)NC(=O)[C@@H](NC(=O)[C@@H](CCCCNC(=O)COCCOCCNC(=O)COCCOCCNC(=O)CC[C@H](NC(=O)CCCCCCCCCCCCCCCCCCC(=O)O)C(=O)O)NC(=O)CCOCCOCC[N+](C)(C)C)C(C)(C)SSC(C)(C)[C@@H](C(=O)N[C@@H](Cc2ccc(OCCOCC[N+](C)(C)C)cc2)C(=O)N[C@@H](Cc2ccc3ccccc3c2)C(=O)NC2(C(=O)N[C@@H](CCCCN(C)C(C)=O)C(=O)N[C@@H](CC(N)=O)C(=O)N[C@@H](Cc3cccnc3)C(=O)N(C)CC(=O)N(C)C)CCOCC2)NC1=O [compound 129, cPEG3aCO-K(PEG2PEG2gEC20OH)-Pen(3)-N(N(Me)2)-T-7MeW-K(NMeAc)-Pen(3)-TMAPF-2Nal-THP-K(NMeAc)-N-3Pya-Sar-CON(Me)2] ({Me3N+(CH2)2O(CH2)2O(CH2)2CO}-[dK]([AEEA-AEEA-γGlu-C20 diacid])[Pen]D(NMe2)T[Trp(7-Me)][Lys(Me)](Ac)[Pen]Y(CH2CH2OCH2CH2NMe3+)[2Nal][Thp][Lys(Me)](Ac)N[3Pal][Sar]-NMe2; disulfide 2-7) | < 0.5 | < 50 |
| CC(=O)NCCCC[C@@H]1NC(=O)[C@H](Cc2c[nH]c3c(C)cccc23)NC(=O)[C@H]([C@@H](C)O)NC(=O)[C@H](CCCCNC(=O)CCC(=O)N[C@H](CC(=O)O)C[N+](C)(C)C)NC(=O)[C@@H](NC(=O)[C@@H](CCCNC(=N)N)NC(C)=O)C(C)(C)SSC(C)(C)[C@@H](C(=O)N[C@@H](Cc2ccc(OCCN)cc2)C(=O)N[C@@H](Cc2ccc3ccccc3c2)C(=O)NC2(C(=O)N[C@@H](CCC(=O)O)C(=O)N[C@@H](CC(N)=O)C(=O)N[C@@H](Cc3cccnc3)C(=O)N(C)CC(=O)N[C@@H](CCCCNC(=O)COCCOCCNC(=O)COCCOCCNC(=O)CC[C@H](NC(=O)CCCCCCCCCCCCCCCCC(=O)O)C(=O)O)C(N)=O)CCOCC2)NC1=O [compound 53, MeCO-r-Pen(3)-K(d)-T-7MeW-K(Ac)-Pen(3)-AEF-2Nal-THP-E-N-3Pya-Sar-K(PEG2PEG2gEC18OH)-CONH2] (Ac-[dR][Pen]K([Suc-X2])T[Trp(7-Me)]K(Ac)[Pen][AEF][2Nal][Thp]EN[3Pal][Sar]K([AEEA-AEEA-γGlu-C18 diacid])-NH2; disulfide 2-7) | < 0.5 | 50 to 500 |
| CC(=O)NCCCC[C@@H]1NC(=O)[C@H](Cc2c[nH]c3c(C)cccc23)NC(=O)[C@H]([C@@H](C)O)NC(=O)[C@H](CC(N)=O)NC(=O)[C@@H](NC(=O)[C@@H](CCCNC(=N)N)NC(C)=O)C(C)(C)SSC(C)(C)[C@@H](C(=O)N[C@@H](Cc2ccc(OCCN)cc2)C(=O)N[C@@H](Cc2ccc3ccccc3c2)C(=O)NC2(C(=O)N[C@@H](CCCCNC(=O)CCOCCOCCOCCOCCNC(=O)CCl)C(=O)N[C@@H](CC(N)=O)C(=O)N[C@@H](Cc3cccnc3)C(=O)N(C)CC(=O)N[C@@H](CCCCNC(=O)COCCOCCNC(=O)COCCOCCNC(=O)CC[C@H](NC(=O)CCCCCCCCCCCCCCCCC(=O)O)C(=O)O)C(N)=O)CCOCC2)NC1=O [compound 4, MeCO-r-Pen(3)-N-T-7MeW-K(Ac)-Pen(3)-AEF-2Nal-THP-K(PEG4AcCl)-N-3Pya-Sar-K(PEG2PEG2gEC18OH)-CONH2] (Ac-[dR][Pen]NT[Trp(7-Me)]K(Ac)[Pen][AEF][2Nal][Thp]K([PEG4-ClAc])N[3Pal][Sar]K([AEEA-AEEA-γGlu-C18 diacid])-NH2; disulfide 2-7) | < 0.5 | < 50 |
| CC(=O)N(C)CCCC[C@H](CC(=O)C1(NC(=O)[C@H](Cc2ccc3ccccc3c2)NC(=O)[C@H](Cc2ccc(OCCCCC[N+](C)(C)C)cc2)NC(=O)[C@H]2NC(=O)[C@H](CCCCN(C)C(C)=O)NC(=O)[C@H](Cc3c[nH]c4c(C)cccc34)NC(=O)[C@H]([C@@H](C)O)NC(=O)[C@H](CC(=O)N(C)C)NC(=O)[C@@H](NC(=O)COCCOCCNC(=O)COCCOCCNC(=O)CC[C@H](NC(=O)CCCCCCCCCCCCCCCCCCCCC(=O)O)C(=O)O)C(C)(C)SSC2(C)C)CCOCC1)C(=O)N[C@@H](CC(N)=O)C(=O)N[C@@H](Cc1cccnc1)C(=O)N(C)CC(=O)N(C)C [compound 119, HOC20gEPEG2PEG2CO-Pen(3)-N(N(Me)2)-T-7MeW-K(NMeAc)-Pen(3)-TMAPF-2Nal-THP-K(NMeAc)-N-3Pya-Sar-CON(Me)2] ({C22 diacid-γGlu-AEEA-AEEA}-[Pen]D(NMe2)T[Trp(7-Me)][Lys(Me)](Ac)[Pen]Y(X1)[2Nal]-X14; disulfide 1-6) | < 0.5 | < 50 |
